Reference: patent US20220193081A1 (Ellamed IP & Services PTE. LTD., priority 2019, published 2022)
Read-outs that look alike come from different tables or passages of the source. Marks after values point to notes of the source that are not given here.

What was measured:
[1] = Visual inspection on storage of sildenafil citrate with equal concentration of sucralose in pH adjusted 50% ethanol (Example 2); format: physicochemical
Method: At room temperature, a phosphate buffer was prepared by weighing 3.9 g of NaH2PO4.2H2O into a 500 mL volumetric flask and adding approximately 300 mL of purified water until the phosphate fully dissolved. The pH was then adjusted to 7 with the introduction of NaOH and dilute to the requisite volume by the further addition of purified water.
A 50% ethanol mixture was prepared by introducing either purified water, taken from a MilliQ™ unit or phosphate buffer, to equivalent volumes of Ph.Eur. grade absolute alcohol. The pH of the resultant mixture was then adjusted by using either NaOH 1N solutions and/or Sodium Citrate 1N solutions to reach predetermined pH values.
Samples of sucralose were then dissolved in the pH adjusted 50% ethanol, whilst stirred with a magnetic stirrer and a needle, to a predetermined concentration. […] After preparation, the solutions were each filtered through PDVF 0.22 micro filter of 13 mm in size and placed in polypropylene containers of adequate volume.
Before being placed on storage, and at time points 7 and 42 days, the concentration of sildenafil in the mixture was assayed using HPLC. The samples were then stored at either −20° C., 2-8° C. or 25° C. for periods of up to 42 days. Periodically, the samples were visually inspected for evidence of precipitation or crystallization. […]

[2] = cited from earlier work
[3] = Extended stability in buffered 50% ethanol, HPLC assay of sildenafil and impurities (Example 6); format: physicochemical
Method: Before being placed on storage in glass vials, plastic containers or Easysnap® blisters, and at time points up to 160 days, the concentration of sildenafil and its impurities in the mixtures were assayed using HPLC. The samples were then stored at 25° C./60% RH, 30° C./65% RH or 40° C./75% RH for periods of up to 160 days. The results of the assays are shown in Table 10 (sildenafil), Table 11 (Impurity B) and Table 12 (Impurity D).

[4] = Ionic strength study, visual inspection: sildenafil citrate and sucralose in absolute alcohol mixed with equal volume of NaCl solution or purified water (Example 3); format: physicochemical
Method: The mixtures were then either placed on storage or NaOH 1N solution was introduced to reach a predetermined pH values. Before being placed on storage, and at time points 7 and 42 days, the concentration of sildenafil in the mixtures were assayed using HPLC. The samples were then stored at either −20° C., 2-8° C. or 25° C. for periods of up to 42 days. Periodically, the samples were visually inspected for evidence of crystallization.

[5] = Maximum dissolution study in 50% aqueous ethanol, HPLC assay (Example 5); format: physicochemical; conditions: added until precipitation occurred, pH 5.5, NaOH
Method: Before being placed on storage, and at time points 7, 42 days and 2 months, the concentration of sildenafil in the mixtures were assayed using HPLC. The samples were then stored at either −20° C., 2-8° C. or 25° C. for periods of up to 2 months. Periodically, the samples were visually inspected for evidence of crystallization.

[6] = EMEA CHMP Assessment Report for VIZARSIN
[7] = Jordanian Pharmaceutical Manufacturing Co.
[8] = Easysnap ®, 25° C./60% RH, Day 32
[9] = Easysnap ®, 25° C./60% RH, Day 80
[10] = Easysnap ®, 25° C./60% RH, Day 159
[11] = Easysnap ®, 30° C./65% RH, Day 32
[12] = Easysnap ®, 40° C./75% RH, Day 32
[13] = plastic, 25° C./60% RH, Day 159

Question: What does the source list for `CCCc1nn(C)c2c(=O)nc(-c3cc(S(=O)(=O)N4CCN(C)CC4)ccc3OCC)[nH]c12.O=C(O)CC(O)(CC(=O)O)C(=O)O` [sildenafil citrate, 1-[[3-(4,7-Dihydro-1-methyl-7-oxo-3-propyl-1H-pyrazolo[4,3-d]pyrimidin-5-yl)-4-ethoxyphenyl]sulfonyl]-4-methylpiperazine citrate salt]?
Answer: visual inspection for precipitation or crystallization ([1]; 15 mg/ml, pH 5.0, Sodium Citrate, 2-8° C.): Prec.; visual inspection for precipitation or crystallization ([1]; 15 mg/ml, pH 5.0, Sodium Citrate, 25° C.): Prec.; visual inspection for precipitation or crystallization ([1]; 15 mg/ml, pH 5.0, Sodium Citrate, −20° C.): Prec.; visual inspection for precipitation or crystallization ([1]; 15 mg/ml, pH 5.2, NaOH, −20° C.): Prec.; visual inspection for precipitation or crystallization ([1]; 15 mg/ml, pH 6.01, NaOH, 50% ethanol/phosphate buffer, 2-8° C.): Prec.; visual inspection for precipitation or crystallization ([1]; 15 mg/ml, pH 6.01, NaOH, 50% ethanol/phosphate buffer, −20° C.): Prec.; visual inspection for precipitation or crystallization ([1]; 15 mg/ml, pH 6.2, NaOH, 2-8° C.): Prec.; visual inspection for precipitation or crystallization ([1]; 15 mg/ml, pH 6.2, NaOH, 25° C.): Prec.; visual inspection for precipitation or crystallization ([1]; 15 mg/ml, pH 6.2, NaOH, −20° C.): Prec.; visual inspection for precipitation or crystallization ([1]; 15 mg/ml, pH 6.2, Sodium Citrate, 2-8° C.): Prec.; visual inspection for precipitation or crystallization ([1]; 15 mg/ml, pH 6.2, Sodium Citrate, −20° C.): Prec.; visual inspection for precipitation or crystallization ([1]; 18 mg/ml, pH 5.2, NaOH, −20° C.): Prec.; visual inspection for precipitation or crystallization ([1]; 18 mg/ml, pH 5.2, Sodium Citrate, −20° C.): Prec.; visual inspection for precipitation or crystallization ([1]; 18 mg/ml, pH 6.0, NaOH, 50% ethanol/phosphate buffer, 2-8° C.): Prec.; visual inspection for precipitation or crystallization ([1]; 18 mg/ml, pH 6.0, NaOH, 50% ethanol/phosphate buffer, −20° C.): Prec.; visual inspection for precipitation or crystallization ([1]; 18 mg/ml, pH 6.0, Sodium Citrate, 2-8° C.): Prec.; visual inspection for precipitation or crystallization ([1]; 18 mg/ml, pH 6.0, Sodium Citrate, −20° C.): Prec.; visual inspection for precipitation or crystallization ([1]; 18 mg/ml, pH 6.2, NaOH, 2-8° C.): Prec.; visual inspection for precipitation or crystallization ([1]; 18 mg/ml, pH 6.2, NaOH, 25° C.): Prec.; visual inspection for precipitation or crystallization ([1]; 18 mg/ml, pH 6.2, NaOH, −20° C.): Prec.; visual inspection for precipitation or crystallization ([1]; 21 mg/ml, pH 5.29, NaOH, 50% ethanol/phosphate buffer, −20° C.): Prec.; visual inspection for precipitation or crystallization ([1]; 21 mg/ml, pH 5.5, NaOH, −20° C.): Prec.; visual inspection for precipitation or crystallization ([1]; 21 mg/ml, pH 5.5, Sodium Citrate, −20° C.): Prec.; visual inspection for precipitation or crystallization ([1]; 21 mg/ml, pH 5.6, NaOH, 50% ethanol/phosphate buffer, 2-8° C.): Prec.; visual inspection for precipitation or crystallization ([1]; 21 mg/ml, pH 5.6, NaOH, 50% ethanol/phosphate buffer, −20° C.): Prec.; visual inspection for precipitation or crystallization ([1]; 21 mg/ml, pH 5.8, NaOH, 2-8° C.): Prec.; visual inspection for precipitation or crystallization ([1]; 21 mg/ml, pH 6.01, NaOH, 50% ethanol/phosphate buffer, 2-8° C.): Prec.; visual inspection for precipitation or crystallization ([1]; 21 mg/ml, pH 6.01, NaOH, 50% ethanol/phosphate buffer, −20° C.): Prec.; solubility in acetone [2, 6]: insoluble; solubility in chloroform [2, 6]: insoluble; solubility in dimethyl sulfoxide (DMSO) [2, 6]: soluble; solubility in ethanol [2, 6]: insoluble; solubility in methanol [2, 6]: soluble; solubility in ethanol [2, 7]: ~1000 µg/mL; times less soluble in ethanol than in water [2, 7]: about 3.5 times; sildenafil assay ([3]; 20 mg/ml with sucralose 1 mg/ml, monoammonium glycyrrhizinate 1 mg/ml, eucalyptus-menthol 3 mg/ml, Day 0, before storage): 102.02 % LS; Impurity B [3, 8]: 0.09 % RS; Impurity D [3, 8]: 0.030 % RS; sildenafil assay [3, 8]: 100.87 % LS; Impurity B [3, 9]: 0.11 % RS; Impurity D [3, 9]: 0.030 % RS; sildenafil assay [3, 9]: 101.53 % LS; Impurity B [3, 10]: 0.20 % RS; Impurity D [3, 10]: 0.034 % RS; sildenafil assay [3, 10]: 100.91 % LS; Impurity B [3, 11]: 0.10 % RS; Impurity D [3, 11]: 0.030 % RS; sildenafil assay [3, 11]: 100.85 % LS; Impurity B [3, 12]: 0.20 % RS; Impurity D [3, 12]: 0.030 % RS; sildenafil assay [3, 12]: 101.46 % LS; Impurity B ([3]; glass, 25° C./60% RH, Day 32): 0.07 % RS; Impurity D ([3]; glass, 25° C./60% RH, Day 32): 0.030 % RS; sildenafil assay ([3]; glass, 25° C./60% RH, Day 32): 100.76 % LS; Impurity B ([3]; glass, 25° C./60% RH, Day 80): 0.10 % RS; Impurity D ([3]; glass, 25° C./60% RH, Day 80): 0.030 % RS; sildenafil assay ([3]; glass, 25° C./60% RH, Day 80): 101.47 % LS; Impurity B ([3]; glass, 25° C./60% RH, Day 159): 0.17 % RS; Impurity D ([3]; glass, 25° C./60% RH, Day 159): 0.038 % RS; sildenafil assay ([3]; glass, 25° C./60% RH, Day 159): 100.68 % LS; Impurity B ([3]; glass, 30° C./65% RH, Day 32): 0.10 % RS; Impurity D ([3]; glass, 30° C./65% RH, Day 32): 0.030 % RS; sildenafil assay ([3]; glass, 30° C./65% RH, Day 32): 100.46 % LS; Impurity B ([3]; glass, 40° C./75% RH, Day 32): 0.17 % RS; Impurity D ([3]; glass, 40° C./75% RH, Day 32): 0.030 % RS; sildenafil assay ([3]; glass, 40° C./75% RH, Day 32): 100.39 % LS; Impurity B ([3]; glass, 40° C./75% RH, Day 159): 0.45 % RS; Impurity D ([3]; glass, 40° C./75% RH, Day 159): 0.039 % RS; sildenafil assay ([3]; glass, 40° C./75% RH, Day 159): 100.60 % LS; Impurity B ([3]; plastic, 25° C./60% RH, Day 32): 0.08 % RS; Impurity D ([3]; plastic, 25° C./60% RH, Day 32): 0.040 % RS; sildenafil assay ([3]; plastic, 25° C./60% RH, Day 32): 100.42 % LS; Impurity B ([3]; plastic, 25° C./60% RH, Day 80): 0.09 % RS; Impurity D ([3]; plastic, 25° C./60% RH, Day 80): 0.030 % RS; sildenafil assay ([3]; plastic, 25° C./60% RH, Day 80): 101.59 % LS; Impurity B [3, 13]: 0.16 % RS; Impurity D [3, 13]: 0.033 % RS; sildenafil assay [3, 13]: 101.19 % LS; Impurity B ([3]; plastic, 30° C./65% RH, Day 32): 0.09 % RS; Impurity D ([3]; plastic, 30° C./65% RH, Day 32): 0.030 % RS; sildenafil assay ([3]; plastic, 30° C./65% RH, Day 32): 100.79 % LS; Impurity B ([3]; plastic, 40° C./75% RH, Day 32): 0.17 % RS; Impurity D ([3]; plastic, 40° C./75% RH, Day 32): 0.030 % RS; sildenafil assay ([3]; plastic, 40° C./75% RH, Day 32): 100.76 % LS; visual inspection for crystallization ([4]; 15 mg/ml, pH 4.39, NaCl diluent 100 mM, initially added to 40 ml of diluent, −20° C.): Prec.; visual inspection for crystallization ([4]; 15 mg/ml, pH 4.45, NaCl diluent 50 mM, −20° C.): Prec.; visual inspection for crystallization ([4]; 15 mg/ml, pH 4.52, NaCl diluent 25 mM, 2-8° C.): Prec.; visual inspection for crystallization ([4]; 15 mg/ml, pH 4.52, NaCl diluent 25 mM, −20° C.): Prec.; visual inspection for crystallization ([4]; 15 mg/ml, pH 4.75, purified water diluent, 2-8° C.): Prec.; visual inspection for crystallization ([4]; 15 mg/ml, pH 4.75, purified water diluent, −20° C.): Prec.; visual inspection for crystallization ([4]; 18 mg/ml, pH 5.5 (NaOH), NaCl diluent 100 mM, −20° C.): Prec.; visual inspection for crystallization ([4]; 21 mg/ml, pH 5.5 (NaOH), NaCl diluent 100 mM, −20° C.): Prec.; Day 0 concentration sildenafil ([5]; with sucralose (second sample)): 82.79* mg/ml; Day 0 concentration sildenafil ([5]; with sucralose (third sample)): 123.95* mg/ml; Day 0 concentration sildenafil ([5]; without sucralose (first sample)): 51.65 mg/mL
